# Source: ChEMBL document CHEMBL5058564, “EUbOPEN Chemogenomics Library 2 (Incucyte)” (2022)
# Where a SMILES comes first, the peptide text is derived from it. [ ]: non-standard residue; d: D form.
# Assays:
# Format in all cases: toxicity, cell-based
# HEK-293T = experiment: Incucyte cell viability with HEK293T; settings: human, 10 µM, compound concentration 10 uM
# Fibroblast = experiment: Incucyte cell viability with human fibroblast; settings: 10 µM, compound concentration 10 uM
# U2OS = experiment: Incucyte cell viability with U2OS; settings: human, 10 µM, compound concentration 10 uM
# [1] = 6 h, replicate number 1, timepoint 6 hours
# [2] = 6 h, replicate number 2, timepoint 6 hours
# [3] = 12 h, replicate number 1, timepoint 12 hours
# [4] = 12 h, replicate number 2, timepoint 12 hours
# [5] = 18 h, replicate number 1, timepoint 18 hours
# [6] = 24 h, replicate number 1, timepoint 24 hours
# [7] = 24 h, replicate number 2, timepoint 24 hours
# [8] = 18 h, replicate number 2, timepoint 18 hours
# [9] = 0 h, replicate number 2, timepoint 0 hours
# [10] = 0 h, replicate number 1, timepoint 0 hours
# Note: unitless GR value; below 1 slowed growth and below 0 cell loss.
SMILES,Growth Rate (HEK-293T; [1]),Growth Rate (HEK-293T; [2]),Growth Rate (HEK-293T; [3]),Growth Rate (HEK-293T; [4]),Growth Rate (HEK-293T; [5]),Growth Rate (HEK-293T; [6]),Growth Rate (HEK-293T; [7]),Growth Rate (Fibroblast; [1]),Growth Rate (Fibroblast; [2]),Growth Rate (Fibroblast; [3]),Growth Rate (Fibroblast; [4]),Growth Rate (Fibroblast; [5]),Growth Rate (Fibroblast; [8]),Growth Rate (Fibroblast; [6]),Growth Rate (U2OS; [9]),Growth Rate (U2OS; [5]),Growth Rate (HEK-293T; [9]),Growth Rate (Fibroblast; [10]),Growth Rate (Fibroblast; [9]),Growth Rate (U2OS; [10]),further results
O=C(NC[C@@H]1[C@H]2CN(C(=O)OCc3cc(C(F)(F)F)cc(C(F)(F)F)c3)C[C@@H]12)c1ccc2[nH]nnc2c1 [BI 2545],0.33,0.67,0.61,0.92,0.65,0.64,0.88,-0.83,-0.59,-0.64,-0.1,-0.55,0.22,-0.35,0.37,0.99,,,,,Growth Rate (Fibroblast; [7]): 0.57; Growth Rate (U2OS; [3]): 0.93
Cc1nccc(COC(=O)N2C[C@@H]3[C@@H](CNC(=O)c4ccc5[nH]nnc5c4)[C@@H]3C2)n1 [BI 3017],,,,0.9,,,,0.04,,0.1,,0.53,,0.68,0.45,0.68,0.34,0.35,0.77,0.07,Growth Rate (HEK-293T; [10]): 0.67; Growth Rate (U2OS; [1]): 0.79; Growth Rate (U2OS; [3]): 0.75; Growth Rate (U2OS; [4]): 0.9; Growth Rate (U2OS; [8]): 0.98; Growth Rate (U2OS; [6]): 0.71
CC(C)C[C@@H]1NC(=O)[C@@H](C(C)C)NC(=O)[C@@H]2CCCN2C(=O)[C@@H](CC(=O)O)NC(=O)[C@@H](Cc2c[nH]c3ccccc23)NC1=O [BQ-123] (cyclo(L[dW][dD]P[dV])),0.89,,0.92,,0.91,0.97,,0.81,0.18,0.87,0.89,0.98,0.94,,-1,0.49,0.79,0.41,0.34,,Growth Rate (U2OS; [1]): 0.51; Growth Rate (U2OS; [2]): 0.68; Growth Rate (U2OS; [3]): 0.65; Growth Rate (U2OS; [6]): 0.93
O=c1ccc2ccc(OCCCCN3CCN(c4cccc5sccc45)CC3)cc2[nH]1 [BREXPIPRAZOLE],-0.63,,-0.43,,-0.32,-0.26,,-0.55,0.52,0.1,0.53,0.08,0.81,0.3,-0.19,,,,,0.42,Growth Rate (Fibroblast; [7]): 0.76; Growth Rate (U2OS; [1]): 0.98
C[C@@H]1CN(Cc2ccc(F)cc2)CCN1C(=O)COc1ccc(Cl)cc1NC(N)=O [BX 471 FREE BASE],-0.13,0.4,-0.03,0.27,0.11,0.18,0.33,-0.16,0.36,-0.14,0.49,-0.19,0.85,-0.14,-1,,,0.82,0.24,-0.96,Growth Rate (HEK-293T; [8]): 0.4; Growth Rate (Fibroblast; [7]): 0.72; Growth Rate (U2OS; [2]): 0.94; Growth Rate (U2OS; [4]): 0.91; Growth Rate (U2OS; [8]): 0.79; Growth Rate (U2OS; [7]): 0.89
C=CCN1C[C@H](C(=O)N(CCCN(C)C)C(=O)NCC)C[C@@H]2c3cccc4[nH]cc(c34)C[C@H]21 [CABERGOLINE],0.78,0.46,0.93,,,,,0.44,1,0.91,,,,,-1,,,-0.05,0.7,,
CC[C@@]1(O)C(=O)OCc2c1cc1n(c2=O)Cc2cc3ccccc3nc2-1 [CAMPTOTHECIN],-0.29,,0.88,,,0.65,0.41,1,,,,,,,-0.34,0.59,0.83,-0.02,0.11,-0.11,Growth Rate (HEK-293T; [10]): -0.84; Growth Rate (U2OS; [1]): 0.7; Growth Rate (U2OS; [2]): 0.82; Growth Rate (U2OS; [3]): 0.75; Growth Rate (U2OS; [4]): 0.64; Growth Rate (U2OS; [8]): 0.33; Growth Rate (U2OS; [6]): 0.48; Growth Rate (U2OS; [7]): 0.2
N#Cc1c(N)nc(SCc2csc(-c3ccc(Cl)cc3)n2)c(C#N)c1-c1ccc(OCCO)cc1 [CAPADENOSON],0.99,0.69,0.54,0.46,0.36,0.31,0.41,-0.5,0.85,-0.47,0.37,-0.41,0.66,-0.34,0.97,0.66,0.32,0.09,-0.41,0.75,Growth Rate (HEK-293T; [10]): 0.41; Growth Rate (HEK-293T; [8]): 0.44; Growth Rate (Fibroblast; [7]): 0.54; Growth Rate (U2OS; [1]): 0.52; Growth Rate (U2OS; [3]): 0.6; Growth Rate (U2OS; [4]): 0.81; Growth Rate (U2OS; [8]): 0.87; Growth Rate (U2OS; [6]): 0.79; Growth Rate (U2OS; [7]): 0.83
Cc1cc(Nc2ncc(Cl)c(Nc3ccccc3S(=O)(=O)C(C)C)n2)c(OC(C)C)cc1C1CCNCC1 [CERITINIB],-0.87,-0.92,-0.62,-0.66,-0.45,-0.35,-0.38,-1,-0.97,-0.99,-0.78,-0.95,-0.6,-0.88,-0.57,-0.66,,,,-0.86,Growth Rate (HEK-293T; [8]): -0.48; Growth Rate (Fibroblast; [7]): -0.52; Growth Rate (U2OS; [1]): -0.94; Growth Rate (U2OS; [2]): -0.91; Growth Rate (U2OS; [3]): -0.82; Growth Rate (U2OS; [4]): -0.74; Growth Rate (U2OS; [8]): -0.52; Growth Rate (U2OS; [6]): -0.58; Growth Rate (U2OS; [7]): -0.42
Cl.Clc1cccc(Cl)c1NC1=NCCN1 [CLONIDINE HYDROCHLORIDE],0.49,,0.74,0.54,0.59,0.85,0.63,0.94,0.45,,0.46,,0.62,0.9,0.55,1,0.43,0.82,,,Growth Rate (HEK-293T; [10]): 0.99; Growth Rate (HEK-293T; [8]): 0.58; Growth Rate (Fibroblast; [7]): 0.47; Growth Rate (U2OS; [1]): 0.87; Growth Rate (U2OS; [2]): 0.91
O=C(O)CCC/C=C\CC1C(O)CC(O)C1/C=C/C(O)COc1cccc(Cl)c1 (stereo not given) [CLOPROSTENOL],0.34,0.93,0.74,,0.75,0.95,,-0.06,,0.25,,0.2,,0.18,-0.99,0.7,0.63,,0.34,-0.27,Growth Rate (HEK-293T; [8]): 0.99; Growth Rate (U2OS; [2]): 0.74
C[C@H]1[C@H]2CC[C@H]3[C@@H]4CC=C5C[C@@H](N(C)C)CC[C@]5(C)[C@H]4CC[C@]23CN1C [CONESSINE],0.67,,0.85,,0.82,0.91,,0.11,,0.18,,0.35,,0.52,,,0.74,,0.49,,Growth Rate (U2OS; [2]): 0.8; Growth Rate (U2OS; [4]): 0.89
CC1(COc2ccc3c(c2)ncn3-c2ccc3cccc(N4CCC(N)CC4)c3n2)COC1 [CRENOLANIB],-0.46,-0.5,-0.32,-0.23,-0.28,-0.22,-0.19,,,,,,,,,0.87,-0.11,-0.8,-0.75,,Growth Rate (HEK-293T; [10]): -0.26; Growth Rate (HEK-293T; [8]): -0.21; Growth Rate (U2OS; [8]): 0.92; Growth Rate (U2OS; [6]): 0.54; Growth Rate (U2OS; [7]): 0.8
